{"source": "patent EP0403172A2", "about": "“Purified enzyme and process therefor” (OKLAHOMA STATE UNIVERSITY, priority 1989, dated 1990)", "type_in_all_cases": "biochemical", "key": {"[1]": {"molecular_target": "T1, isopenicillin N epimerase (Streptomyces clavuligerus, UniProt P18549)", "T1 construct": "Approximately 250 g of frozen whole cells of S. clavuligerus were thawed and homogenated; made in house; host or cells: Streptomyces clavuligerus NRRL 18491 (native producer; the endogenous enzyme was purified from cell-free extract, not made recombinantly)", "T1 sequence (P18549 1-398)": "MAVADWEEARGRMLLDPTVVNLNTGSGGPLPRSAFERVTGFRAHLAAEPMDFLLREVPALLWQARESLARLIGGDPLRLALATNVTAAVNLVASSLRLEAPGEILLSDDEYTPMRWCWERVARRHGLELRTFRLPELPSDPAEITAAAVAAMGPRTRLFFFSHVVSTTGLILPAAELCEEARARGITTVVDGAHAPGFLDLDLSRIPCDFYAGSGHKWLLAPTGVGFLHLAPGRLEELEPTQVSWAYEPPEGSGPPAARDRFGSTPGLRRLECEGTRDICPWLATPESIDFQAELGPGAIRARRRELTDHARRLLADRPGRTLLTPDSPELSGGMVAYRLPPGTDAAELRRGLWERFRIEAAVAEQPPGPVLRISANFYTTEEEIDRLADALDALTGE", "test": "Epimerase activity assay (product formation from isopenicillin N / penicillin N, quantitated by HPLC after o-phthaldialdehyde derivatization)", "protocol": "The epimerase activity was determined by the product formation using isopenicillin N and penicillin N as substrates. Formation of isopenicillin N and penicillin N was quantitated by HPLC. […] The reaction mixture was incubated at 37°C for 20 min. The reaction was terminated by placing the reaction vessel in boiling water for 10 min, immediately cooling the reaction mixture with ice, and then filtering the cold mixture through a 0.45 µm filter.\nThe derivatives were then analyzed by HPLC. The assay samples were prepared for HPLC as follows. The assay filtrate, obtained as described above, 20 µl was mixed with 5 µl of a derivatizing reagent consisting of 4 mg of o-phthaldialdehyde dissolved in 300 µl of methanol, 250 µl of 0.4 M sodium borate, pH 9.4, 390 µl of water and 60 µl of 1 M N-acetyl-L-cysteine, adjusted to pH 5-6 with sodium hydroxide. After a 2 min reaction time, 200 µl of 50 mM sodium acetate, pH 5.0, were added to the mixture and 50 µl aliquots were used for HPLC analysis."}, "[2]": {"molecular_target": "T1, isopenicillin N epimerase", "test": "Conversion to apoenzyme with hydroxylamine / reduction with sodium borohydride, then activity", "protocol": "PLP bound to the epimerase was measured by the known phenylhydrazine method and an average value of one mole of PLP per 47,000 g of enzyme was obtained. The haloenzyme was converted to the apoenzyme by incubation at 0°C for 60 min with 10 mM potassium phosphate, pH 7.0, containing 10 mM hydroxylamine followed by gel filtration. The hydroxylamine treated epimerase expressed no activity in the absence of exogenous PLP and the absorption maximum at 420 nm disappeared (FIG. 1, curve 2). The epimerase activity was restored by the addition of PLP to the apoenzyme. The apparent Michelis constant for PLP was determined to be 2.4 µM.\nThe absorption spectra shown in FIG. 1 of the drawings were obtained as follows. The epimerase (haloenzyme), curve 1, was treated with 10 mM hydroxylamine (apoenzyme), curve 2, or was reduced with 1 mM sodium borohydride, curve 3. After removal of hydroxylamine or sodium borohydride by gel filtration, absorption spectra were run in 10 mM potassium phosphate, pH 7.0, at the enzyme concentration of 0.57 mg/ml with an Aminco DW-2000 spectrophotometer."}, "[3]": {"molecular_target": "T1, isopenicillin N epimerase", "test": "Fluorescamine titration of hydroxylamine-treated epimerase with activity assay of aliquots", "details": "fluorescamine/epimerase ratio of 35 mole/mole", "protocol": "Fluorescamine reacts with primary amino groups, such as the α-amino group of the N-terminal amino residue and the ε-amino groups of lysine in the enzyme to form fluorescent products with maximum excitation and emission wavelength of 390 nm and 475 nm, respectively.\nThe emission fluorescence of fluorescamine treated epimerase shown in FIG. 2 of the drawings was obtained as follows. The epimerase (0.5 mg/ml) was incubated in 10 mM potassium phosphate, pH 7.0, containing 10 mM hydroxylamine at 0°C for 60 min. After removal of hydroxylamine by gel filtration, the treated enzyme (0.16 mg/ml) in 10 mM potassium phosphate, pH 7.0, was titrated with the indicated amounts of fluorescamine (50 mM) dissolved in dry acetone at 25°C. The sample was excited at 390 nm and the emission fluorescence was followed at 475 nm. […] Simultaneously, aliquots of the enzyme solution were withdrawn and activity for isopenicillin N was assayed. The assay results (% activity) are shown on the curve labeled \"●\" in FIG. 2."}, "[4]": {"details": "compound as epimerase substrate at 1.4 mM, Isopenicillin N = 100, read-out: Relative Activity (%)"}, "[5]": {"details": "compound as epimerase substrate at 1.4 mM, Isopenicillin N = 100"}}, "note": "Read-outs that look alike come from different tables or passages of the source.", "data": [{"smiles": "O[C@H](CS)[C@H](O)CS", "note": "(racemic) [Dithiothreitol]", "values": [{"measurement": "effect on activity of epimerase", "setting": "[1]", "value": "partially stimulated"}, {"measurement": "Activity", "setting": "[1]; sulfhydryl compound at 0.2 mM", "value": 290, "unit": "µmol/min/mL"}, {"measurement": "Activity", "setting": "[1]; sulfhydryl compound at 0.5 mM", "value": 300, "unit": "µmol/min/mL"}]}, {"smiles": "CC(C)[C@@H](NC(=O)[C@H](CS)NC(=O)CCC[C@H](N)C(=O)O)C(=O)O", "note": "[ACV, δ-(L-α-aminoadipoyl)-L-cysteinyl-D-valine]", "values": [{"measurement": "Activity", "setting": "[1]; [4]", "value": 0, "unit": "%"}]}, {"smiles": "Nc1ncnc2c1ncn2[C@@H]1O[C@H](COP(=O)(O)OP(=O)(O)OP(=O)(O)O)[C@@H](O)[C@H]1O", "note": "[ATP, Adenosine Triphosphate]", "values": [{"measurement": "Activity", "setting": "[1]; Table 4, compound at 1 mM", "value": 208, "unit": "µmol/min/mL"}]}, {"smiles": "CC(=O)OCC1=C(C(=O)O)N2C(=O)[C@@H](NC(=O)CCC[C@@H](N)C(=O)O)[C@H]2SC1", "note": "[Ceph C, cephalosporin C]", "values": [{"measurement": "Activity", "setting": "[1]; [4]", "value": 0, "unit": "%"}]}, {"smiles": "CC(C)(COP(=O)(O)OP(=O)(O)OC[C@H]1O[C@@H](n2cnc3c(N)ncnc32)[C@H](O)[C@@H]1OP(=O)(O)O)[C@@H](O)C(=O)NCCC(=O)NCCS", "note": "[CoA, Coenzyme A]", "values": [{"measurement": "Activity", "setting": "[1]; Table 4, compound at 1 mM", "value": 202, "unit": "µmol/min/mL"}]}, {"smiles": "N[C@H](CCCC(=O)O)C(=O)O", "note": "[D-Amino adipic acid]", "values": [{"measurement": "Activity", "setting": "[1]; [4]", "value": 0, "unit": "%"}]}, {"smiles": "N[C@@H]1CONC1=O", "note": "[D-Cycloserine]", "values": [{"measurement": "inhibition at 1000 µM", "setting": "[1]; compound at 1.0 mM", "value": 23, "unit": "%"}]}, {"smiles": "N[C@H](CCCC(=O)N[C@@H]1C(=O)N2C(C(=O)O)=C(CO)CS[C@H]12)C(=O)O", "note": "[DAC, Deacetylcephalosporin C]", "values": [{"measurement": "Relative Activity (%)", "setting": "[1]; [5]", "value": 0, "unit": "%"}]}, {"smiles": "CC1=C(C(=O)O)N2C(=O)[C@@H](NC(=O)CCC[C@@H](N)C(=O)O)[C@H]2SC1", "note": "[DAOC, Deacetoxycephalosporin C (3-cephem)]", "values": [{"measurement": "Activity", "setting": "[1]; [4]", "value": "< 1", "unit": "%"}]}, {"smiles": "Cc1cc2nc3c(=O)[nH]c(=O)nc-3n(C[C@H](O)[C@H](O)[C@H](O)COP(=O)(O)OP(=O)(O)OC[C@H]3O[C@@H](n4cnc5c(N)ncnc54)[C@H](O)[C@@H]3O)c2cc1C", "note": "[FAD, Flavin-Adenine Dinucleotide]", "values": [{"measurement": "Activity", "setting": "[1]; Table 4, compound at 0.5 mM", "value": 42, "unit": "µmol/min/mL"}, {"measurement": "inhibition at 500 µM", "setting": "[1]; compound at 0.5 mM", "value": 80, "unit": "%"}]}, {"smiles": "O=S(=O)([O-])[O-].[Fe+2]", "note": "[FeSO4]", "values": [{"measurement": "Activity", "setting": "[1]; Table 4, compound at 0.1 mM", "value": 150, "unit": "µmol/min/mL"}]}, {"smiles": "NO", "note": "[Hydroxylamine]", "values": [{"measurement": "Inhibition (%)", "setting": "[1]; compound at 0.1 mM", "value": 80, "unit": "%"}, {"measurement": "Inhibition (%)", "setting": "[1]; compound at 1.0 mM", "value": 95, "unit": "%"}, {"measurement": "epimerase activity after treatment", "setting": "[2]; 10 mM hydroxylamine, 0°C, 60 min, gel filtration, absence of exogenous PLP", "value": "no activity"}]}, {"smiles": "NC(=O)CI", "note": "[Iodoacetamide]", "values": [{"measurement": "inhibition at 1000 µM", "setting": "[1]; compound at 1.0 mM", "value": 28, "unit": "%"}]}, {"smiles": "CC(C)NNC(=O)c1ccncc1", "note": "[Iproniazid]", "values": [{"measurement": "inhibition at 1000 µM", "setting": "[1]; compound at 1.0 mM", "value": 25, "unit": "%"}]}, {"smiles": "CC1=CSC2C(NC(=O)CCCC(N)C(=O)O)C(=O)N2C1C(=O)O", "note": "(stereo not shown) [IsoDAOC, Isodeacetoxycephalosporin C (2-cephem)]", "values": [{"measurement": "Relative Activity (%)", "setting": "[1]; [5]", "value": 0, "unit": "%"}]}, {"smiles": "NNC(=O)c1ccncc1", "note": "[Isoniazid]", "values": [{"measurement": "inhibition at 1000 µM", "setting": "[1]; compound at 1.0 mM", "value": 23, "unit": "%"}]}, {"smiles": "CC1(C)S[C@@H]2[C@H](NC(=O)CCC[C@H](N)C(=O)O)C(=O)N2[C@H]1C(=O)O", "note": "[Isopenicillin N]", "values": [{"measurement": "Activity", "setting": "[1]; [4]", "value": 100, "unit": "%"}]}, {"smiles": "N[C@@H](CCCC(=O)O)C(=O)O", "note": "[L-Amino adipic acid]", "values": [{"measurement": "Activity", "setting": "[1]; [4]", "value": 0, "unit": "%"}]}, {"smiles": "CCN1C(=O)C=CC1=O", "note": "[N-Ethylmaleimide]", "values": [{"measurement": "inhibition at 100 µM", "setting": "[1]; compound at 0.1 mM", "value": 26, "unit": "%"}, {"measurement": "inhibition at 1000 µM", "setting": "[1]; compound at 1.0 mM", "value": 45, "unit": "%"}]}, {"smiles": "CC(=O)N[C@@H](CS)C(=O)O", "note": "[N-acetyl-L-cysteine]", "values": [{"measurement": "Activity", "setting": "[1]; sulfhydryl compound at 0.2 mM", "value": 224, "unit": "µmol/min/mL"}, {"measurement": "Activity", "setting": "[1]; sulfhydryl compound at 0.5 mM", "value": 190, "unit": "µmol/min/mL"}]}, {"smiles": "NC(=O)C1=CN([C@@H]2O[C@H](COP(=O)(O)OP(=O)(O)OC[C@H]3O[C@@H](n4cnc5c(N)ncnc54)[C@H](O)[C@@H]3O)[C@@H](O)[C@H]2O)C=CC1", "note": "[NADH, Reduced Nicotinamide Adenine Dinucleotide]", "values": [{"measurement": "Activity", "setting": "[1]; Table 4, compound at 1 mM", "value": 184, "unit": "µmol/min/mL"}]}, {"smiles": "Cc1ncc(COP(=O)(O)O)c(C=O)c1O", "note": "[PLP, pyridoxal-5′-phosphate]", "values": [{"measurement": "apparent Michelis constant for PLP", "setting": "[1]; PLP added to the apoenzyme (hydroxylamine treated)", "value": 2.4, "unit": "µM"}]}, {"smiles": "CC1(C)S[C@@H]2[C@H](NC(=O)CCC[C@@H](N)C(=O)O)C(=O)N2[C@H]1C(=O)O", "note": "[Penicillin N]", "values": [{"measurement": "Activity", "setting": "[1]; [4]", "value": 204, "unit": "%"}]}, {"smiles": "O=CC(=O)c1ccccc1", "note": "[Phenylglyoxal]", "values": [{"measurement": "inhibition at 1000 µM", "setting": "[1]; compound at 1.0 mM", "value": 33, "unit": "%"}]}, {"smiles": "O=C1OC2(OC=C(c3ccccc3)C2=O)c2ccccc21", "note": "(stereo not shown) [fluorescamine]", "values": [{"measurement": "epimerase activity remaining", "setting": "[3]", "value": "about 80%"}]}, {"smiles": "O=S(=O)(F)Cc1ccccc1", "note": "[phenylmethylsulfonyl fluoride]", "values": [{"measurement": "effect on activity of epimerase", "setting": "[1]", "value": "do not affect"}]}, {"smiles": "[BH4-].[Na+]", "note": "[sodium borohydride]", "values": [{"measurement": "catalytic activity after reduction", "setting": "[2]; reduction of haloenzyme with sodium borohydride (1 mM), PLP did not restore activity", "value": "destroyed catalytic activity"}]}, {"smiles": "OCCS", "note": "[β-mercaptoethanol]", "values": [{"measurement": "effect on activity of epimerase", "setting": "[1]", "value": "partially stimulated"}, {"measurement": "Activity", "setting": "[1]; sulfhydryl compound at 0.2 mM", "value": 275, "unit": "µmol/min/mL"}, {"measurement": "Activity", "setting": "[1]; sulfhydryl compound at 0.5 mM", "value": 281, "unit": "µmol/min/mL"}]}]}
